In patent publication US6274715A, “Tricyclic erythromycin derivatives” (priority 1997, dated 2001):
Values after ≈ are worked out from the molar mass of the structure shown.

What was measured:
Type in all cases: cell-based
[1] = test system: ESCHERICHIA COLI H560; experiment: In vitro antibacterial activity, MIC, BHI agar dilution; settings: E. coli H560, unit assumed
[2] = test system: PSEUDOMONAS AERUGINOSA K799/WT; experiment: as above; settings: P. aeruginosa K799/WT, unit assumed
[3] = test system: STAPHYLOCOCCUS AUREUS NCTC10649M; experiment: as above; settings: S. aureus NCTC10649M, unit assumed
[4] = test system: ESCHERICHIA COLI SS; experiment: as above; settings: E. coli SS, unit assumed
[5] = test system: MYCOBACTERIUM SMEGMATIS ATCC 114; experiment: as above; settings: M. smegmatis ATCC 114, unit assumed
[6] = test system: ESCHERICHIA COLI JUHL; settings: E. coli JUHL; BHI agar; unit assumed
[7] = test system: STAPHYLOCOCCUS AUREUS 1775; experiment: In vitro antibacterial activity, MIC, BHI agar dilution; settings: S. aureus 1775, unit assumed
[8] = test system: PSEUDOMONAS AERUGINOSA DPHD-2862; experiment: as above; settings: P. aeruginosa DPHD-2862, unit assumed
[9] = test system: PSEUDOMONAS CEPACIA 296I; experiment: as above; settings: P. cepacia 296I, unit assumed
[10] = test system: STAPHYLOCOCCUS AUREUS A5177; experiment: as above; settings: S. aureus A5177, unit assumed
[11] = test system: ENTEROBACTER AEROGENES ATCC 13048; experiment: as above; settings: E. aerogenes ATCC 13048, unit assumed
[12] = test system: STR[…] 508; experiment: as above; settings: S. agalactiae CMX 508, unit assumed
Outline: (§1)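 Twelve successive aqueous dilutions of compound in Brain Heart Infusion agar were inoculated with 1:100 culture dilutions (1:10 for slow growers such as Micrococcus, Streptococcus) by Steers replicator and incubated at 35-37° C for 20 to 24 hours. MIC was the lowest concentration giving no growth, slight haze or sparse colonies versus drug-free control.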

[13] = test system: EN[…] ATCC 8043; experiment: as above; settings: E. faecium ATCC 8043, unit assumed
Outline: as §1

[14] = test system: M[…] ATCC 4698; experiment: as above; settings: M. luteus ATCC 4698, unit assumed
Outline: as §1

[15] = test system: M[…] ATCC 9341; experiment: as above; settings: M. luteus ATCC 9341, unit assumed
Outline: as §1

[16] = test system: ESCHERICHIA COLI DC-2; experiment: as above; settings: E. coli DC-2, unit assumed
[17] = test system: PROVIDENCIA STUARTII CMX 640; settings: P. stuartii CMX 640; BHI agar; unit assumed
[18] = test system: STAPHYLOCOCCUS AUREUS ATCC 6538P; experiment: In vitro antibacterial activity, MIC, BHI agar dilution; settings: S. aureus ATCC 6538P, 35-37° C., 20 to 24 hours, unit assumed
[19] = test system: CANDIDA ALBICANS CCH 442; experiment: as above; settings: C. albicans CCH 442, unit assumed
[20] = test system: STAPHYLOCOCCUS AUREUS A-5278; experiment: as above; settings: S. aureus A-5278, unit assumed
[21] = test system: ESCHERICHIA COLI KNK 437; settings: E. coli KNK 437; BHI agar; unit assumed
[22] = test system: STREPTOCOCCUS PYOGENES EES61; experiment: In vitro antibacterial activity, MIC, BHI agar dilution; settings: S. pyogenes EES61, unit assumed
[23] = test system: STAPHYLOCOCCUS EPIDERMIDIS 3519; settings: S. epidermidis 3519; BHI agar; unit assumed
[24] = test system: KLEBSIELLA PNEUMONIAE ATCC 8045; experiment: In vitro antibacterial activity, MIC, BHI agar dilution; settings: K. pneumoniae ATCC 8045, unit assumed
[25] = test system: STAPHYLOCOCCUS AUREUS CMX 553; experiment: as above; settings: S. aureus CMX 553, unit assumed
[26] = test system: PSEUDOMONAS AERUGINOSA BMH10; experiment: as above; settings: P. aeruginosa BMH10, unit assumed
[27] = test system: PSEUDOMONAS AERUGINOSA 5007; experiment: as above; settings: P. aeruginosa 5007, unit assumed
[28] = test system: PSEUDOMONAS AERUGINOSA K799/61; experiment: as above; settings: P. aeruginosa K799/61, unit assumed
[29] = test system: STREPTOCOCCUS PYOGENES PIU 2548; experiment: as above; settings: S. pyogenes PIU 2548, unit assumed
[30] = test system: STAPHYLOCOCCUS AUREUS CMX 642A; experiment: as above; settings: S. aureus CMX 642A, unit assumed
[31] = test system: ACINETOBACTER CALCOACETICUS CMX 669; experiment: as above; settings: A. calcoaceticus CMX 669, unit assumed
[32] = test system: PSEUDOMONAS AERUGINOSA DPHD-5263; experiment: as above; settings: P. aeruginosa DPHD-5263, unit assumed
[33] = test system: STREPTOCOCCUS PYOGENES 930; experiment: as above; settings: S. pyogenes 930, unit assumed

Structure (SMILES)	MIC [1] [µg/mL]	MIC [2] [µg/mL]	MIC [3] [µg/mL]	MIC [4] [µg/mL]	MIC [5] [µg/mL]	MIC [6] [µg/mL]	MIC [7] [µg/mL]	MIC [8] [µg/mL]	MIC [9] [µg/mL]	MIC [10] [µg/mL]	MIC [11] [µg/mL]	MIC [12] [µg/mL]	MIC [13] [µg/mL]	MIC [14] [µg/mL]	MIC [15] [µg/mL]	MIC [16] [µg/mL]	MIC [17] [µg/mL]	MIC [18] [µg/mL]	MIC [19] [µg/mL]	MIC [20] [µg/mL]	also measured
CC[C@H]1OC(=O)[C@H](C)C(=O)[C@H](C)[C@@H](O[C@@H]2O[C@H](C)C[C@H](N(C)C)[C@H]2O)[C@](C)(OC)C[C@@H](C)C2=N[C@H](COCc3ccc(OC)cc3)CN3C(=O)O[C@@]1(C)[C@H]3[C@H]2C [Example 90]	50 (≈ 63.5 µM)	> 100	0.78 (≈ 0.99 µM)	0.78 (≈ 0.99 µM)	0.78 (≈ 0.99 µM)	> 100	> 100	> 100	> 100	0.39 (≈ 0.495 µM)	> 100	0.02 (≈ 0.0254 µM)	0.02 (≈ 0.0254 µM)	0.78 (≈ 0.99 µM)	0.1 (≈ 0.127 µM)	> 100	> 100	0.39 (≈ 0.495 µM)	> 100	> 100	MIC [21]: > 100 µg/mL; MIC [22]: ≤ 0.005 µg/mL; MIC [23]: 0.39 µg/mL (≈ 0.495 µM); MIC [24]: > 100 µg/mL; MIC [25]: 0.39 µg/mL (≈ 0.495 µM); MIC [26]: > 100 µg/mL; MIC [27]: > 100 µg/mL; MIC [28]: 6.2 µg/mL (≈ 7.87 µM); MIC [29]: 0.78 µg/mL (≈ 0.99 µM); MIC [30]: 0.39 µg/mL (≈ 0.495 µM); MIC [31]: 100 µg/mL (≈ 127 µM); MIC [32]: > 100 µg/mL
CC[C@H]1OC(=O)[C@H](C)C(=O)[C@H](C)[C@@H](O[C@@H]2O[C@H](C)C[C@H](N(C)C)[C@H]2O)[C@](C)(OC)C[C@@H](C)C2=N[C@@H]3CCCC[C@@H]3N3C(=O)O[C@@]1(C)[C@H]3[C@H]2C [Example 13]	50 (≈ 72.3 µM)	> 100	0.78 (≈ 1.13 µM)	0.39 (≈ 0.564 µM)	0.39 (≈ 0.564 µM)	50 (≈ 72.3 µM)	> 100	> 100	> 100	0.78 (≈ 1.13 µM)	100 (≈ 145 µM)	0.02 (≈ 0.0289 µM)	0.1 (≈ 0.145 µM)	0.78 (≈ 1.13 µM)	0.2 (≈ 0.289 µM)	100 (≈ 145 µM)	> 100	0.78 (≈ 1.13 µM)	3.1 (≈ 4.48 µM)	> 100	MIC [33]: > 100 µg/mL; MIC [21]: 100 µg/mL (≈ 145 µM); MIC [22]: 0.02 µg/mL (≈ 0.0289 µM); MIC [23]: 0.78 µg/mL (≈ 1.13 µM); MIC [24]: 100 µg/mL (≈ 145 µM); MIC [25]: 0.78 µg/mL (≈ 1.13 µM); MIC [26]: > 100 µg/mL; MIC [27]: > 100 µg/mL; MIC [28]: 3.1 µg/mL (≈ 4.48 µM); MIC [29]: 0.2 µg/mL (≈ 0.289 µM); MIC [30]: 0.78 µg/mL (≈ 1.13 µM); MIC [31]: > 100 µg/mL; MIC [32]: > 100 µg/mL
